For 22 molecules, IC50 results are on record in US11685744B2, “CDK inhibitors and their use as pharmaceuticals” (Prelude Therapeutics, Incorporated, priority 2020, dated 2023).

pIC50: −log10 of the molar value. Where only a bound is given, the exact number is not on record here.

Test [1] has as its system MCF7 adenocarcinoma cell line. As to the kind of experiment: Cell proliferation studies in MCF7 cells (ATP-Lite, 10 days). The class given is cell-based. The note with it: Homo sapiens, 240 h, read-out: PROLIFERATION_CTG_MCF7 IC50. The method, then: Cell Proliferation Studies in MCF7 Cells
Cell proliferation studies were conducted in MCF7 adenocarcinoma cell line. Cells were maintained in DMEM (Coming, Catalog #: 10-013-CV) supplemented with 10% v/v FBS (Gibco, Catalog #: 26140-079), 1% v/v Penicillin Streptomycin (Gibco, Catalog #15140-122) Cells were seeded in 384-well plates at a density of 100 or 200 cells/well. Compounds dissolved in DMSO were plated in quadruplicate using a digital dispenser (D300E, Tecan) and tested on a 9-point 3-fold serial dilution. Cells were incubated for 10 days in a 37° C. active humidified incubator at 5% CO2. A media exchange and second compound addition were performed on day 5. Cell viability was measured using the ATP-Lite 1-Step Luminescence reagent (Perkin Elmer, Catalog #: 6016731) as per manufacturer's instructions. Luminescence signal was measured with a multimode plate reader (Envision 2105, Perkin Elmer). Raw data files were imported to Dotmatics Screening Ultra for IC50 analysis. Luminescence values were normalized to both background and DMSO controls to obtain a percentage of viable cells relative to DMSO vehicle control.

The target in another test is CDK4/Cyclin D1 (Homo sapiens (Human), UniProt P11802). As to the kind of experiment: CDK4/CyclinD1 enzymatic activity assay (TR-FRET). The note with it: ATP 2 mM, read-out: CDK4_D1 IC50. The class given is biochemical. The procedure:
CDK4/CyclinD1 Enzymatic Activity Assay
The inhibitory activity of compounds was evaluated in vitro using TR-FRET assay with white 384-well low volume microplate (Greiner Bio-One). CDK4/Cyclin D1 catalyzed phosphorylation of peptide in the presence and absence of compounds was measured. IC50 determination. Recombinant protein complex CDK4/Cyclin D1, expressed from insect cell, was purchased from ProQinase. Testing compounds were dissolved in DMSO at 0.1 mM and tested in 9-dose IC50 mode. The reaction mixture was prepared by mixing CDK4/CyclinD1 (1 nM final), ULight-4E-BP1 (100 nM final, Perkinelmer, TRF0128-D), and ATP (2 mM final) in assay buffer (20 mM of HEPES pH 7.4, 1 mM of EGTA, 0.05% BSA, 0.005% Tween 20, and 1 mM TCEP). The compound of interest in DMSO was added to each well in 3-fold serial dilution by dispenser (TECAN D300E). After 20 minutes preincubation at room temperature, MgCl2 (10 mM final) was added to initiate the reaction. Following a 60 minutes incubation at 37° C., the reaction was stopped by addition of 2 μL of quenching buffer consisting of Lance detection buffer (Perkinelmer CR97-100C), 2 nM LANCE Ultra Europium-anti-P-4E-BP1 (Perkinelmer, TRF0216-D), 10 mM EDTA, and incubate at room temperature for additional 60 minutes in dark. The reaction signal was measured by Envision multimode plate reader (PerkinElmer, 2102-0010). IC50 values were determined by fitting the data to the standard 4 parameters with Hill Slope using GraphPad Prism software.

Chain of CDK4/Cyclin D1 (P11802 whole entry): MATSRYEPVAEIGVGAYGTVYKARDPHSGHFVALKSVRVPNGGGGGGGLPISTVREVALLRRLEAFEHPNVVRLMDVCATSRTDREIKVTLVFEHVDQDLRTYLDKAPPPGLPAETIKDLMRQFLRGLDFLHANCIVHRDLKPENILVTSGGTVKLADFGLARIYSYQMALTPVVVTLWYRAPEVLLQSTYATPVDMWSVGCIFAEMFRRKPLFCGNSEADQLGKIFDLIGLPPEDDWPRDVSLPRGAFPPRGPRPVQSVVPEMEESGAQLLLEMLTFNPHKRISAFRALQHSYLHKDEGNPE
Chain of CDK4/Cyclin D1 (P24385 whole entry partner): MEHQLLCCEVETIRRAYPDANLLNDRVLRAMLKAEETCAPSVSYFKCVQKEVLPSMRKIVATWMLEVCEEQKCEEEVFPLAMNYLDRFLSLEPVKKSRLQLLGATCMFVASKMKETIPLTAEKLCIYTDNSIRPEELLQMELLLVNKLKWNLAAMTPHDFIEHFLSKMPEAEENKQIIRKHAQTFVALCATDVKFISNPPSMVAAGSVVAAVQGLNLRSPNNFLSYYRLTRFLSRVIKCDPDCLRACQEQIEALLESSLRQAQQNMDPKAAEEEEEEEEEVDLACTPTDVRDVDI

As to `CN1CCC(c2ccc(Nc3ncc(F)c(-c4cc5nccc(C6CCCC6)c5s4)n3)nc2)CC1` [Example 34, 4-(7-Cyclopentylthieno[3,2-b]pyridin-2-yl)-5-fluoro-N-(5-(1-methylpiperidin-4-yl)pyridin-2-yl)pyrimidin-2-amine], the pIC50 in test [1] was 6.70 to 7.70; on CDK4/Cyclin D1, ≥ 7.70.
For `Fc1cnc(Nc2ccc(N3CCNCC3)cn2)nc1-c1cc2nccc(C3CCCC3)c2s1` [Example 36, 4-(7-Cyclopentylthieno[3,2-b]pyridin-2-yl)-5-fluoro-N-(5-piperazin-1-ylpyridin-2-yl)pyrimidin-2-amine] the same measures were 5.70 to 6.70 and 6.70 to 7.70.
Regarding `CN1CCN(c2ccc(Nc3ncc(F)c(-c4cc5nccc(C6CCCC6)c5s4)n3)nc2)CC1` [Example 37, 4-(7-Cyclopentylthieno[3,2-b]pyridin-2-yl)-5-fluoro-N-[5-(4-methylpiperazin-1-yl)pyridin-2-yl]pyrimidin-2-amine], the values for the pIC50 (in test [1]; at CDK4/Cyclin D1) were 5.70 to 6.70 and 6.70 to 7.70, respectively.
Turning to `Cc1c(-c2nc(Nc3ccc(N4CCOCC4)cn3)ncc2F)sc2c(C3CCCC3)ccnc12` [Example 38, 4-(7-Cyclopentyl-3-methylthieno[3,2-b]pyridin-2-yl)-5-fluoro-N-(5-morpholinopyridin-2-yl)pyrimidin-2-amine], the pIC50 in test [1] was < 5.70; at CDK4/Cyclin D1, 6.70 to 7.70.
For `COC1CCN(c2ccc(Nc3ncc(F)c(-c4cc5nccc(C6CCCC6)c5s4)n3)nc2)CC1` [Example 39, 4-(7-Cyclopentylthieno[3,2-b]pyridin-2-yl)-5-fluoro-N-[5-(4-methoxypiperidin-1-yl)pyridin-2-yl]pyrimidin-2-amine] the same measures were 5.70 to 6.70 and 6.70 to 7.70.
For `Fc1cnc(Nc2ccc(N3CCOCC3)cn2)nc1-c1cc2nccc(C3CCCC3)c2s1` [Example 40, 4-(7-Cyclopentylthieno[3,2-b]pyridin-2-yl)-5-fluoro-N-(5-morpholinopyridin-2-yl)pyrimidin-2-amine] the same measures were < 5.70 and 6.70 to 7.70.
For `Fc1cnc(Nc2ccc(N3CCC(F)(F)C3)cn2)nc1-c1cc2nccc(C3CCCC3)c2s1` [Example 41, 4-(7-Cyclopentylthieno[3,2-b]pyridin-2-yl)-N-[5-(3,3-difluoropyrrolidin-1-yl)pyridin-2-yl]-5-fluoropyrimidin-2-amine] the same measures were < 5.70 and 5.70 to 6.70.
`Fc1cnc(Nc2ccc(N3CCOCC3)cn2)nc1-c1cc2c(C3CCCC3)ccnc2s1` [Example 42, 4-(4-Cyclopentylthieno[2,3-b]pyridin-2-yl)-5-fluoro-N-(5-morpholin-4-ylpyridin-2-yl)pyrimidin-2-amine]: the pIC50 was < 5.70 in test [1] and 5.70 to 6.70 at CDK4/Cyclin D1.
The corresponding values for `CN1CCC(c2ccc(Nc3ncc(F)c(-c4cc5c(C6CCCC6)ccnc5s4)n3)nc2)CC1` [Example 43, 4-(4-Cyclopentylthieno[2,3-b]pyridin-2-yl)-5-fluoro-N-(5-(1-methylpiperidin-4-yl)pyridin-2-yl)pyrimidin-2-amine] are 5.70 to 6.70 and 6.70 to 7.70.
In the case of `CCN1CCN(c2ccc(Nc3ncc(F)c(-c4cc5c(C6CCCC6)ccnc5s4)n3)nc2)CC1` [Example 44, 4-(4-Cyclopentylthieno[2,3-b]pyridin-2-yl)-N-[5-(4-ethylpiperazin-1-yl)pyridin-2-yl]-5-fluoropyrimidin-2-amine], the pIC50 was 5.70 to 6.70 in test [1] and 6.70 to 7.70 at CDK4/Cyclin D1.
The corresponding values for `CN1CCN(c2ccc(Nc3ncc(F)c(-c4cc5c(C6CCCC6)ccnc5s4)n3)nc2)CC1` [Example 45, 4-(4-Cyclopentylthieno[2,3-b]pyridin-2-yl)-5-fluoro-N-[5-(4-methylpiperazin-1-yl)pyridin-2-yl]pyrimidin-2-amine] are 5.70 to 6.70 and 6.70 to 7.70.
The corresponding values for `Fc1cnc(Nc2ccc(N3CCNCC3)cn2)nc1-c1cc2c(C3CCCC3)ccnc2s1` [Example 46, 4-(4-Cyclopentylthieno[2,3-b]pyridin-2-yl)-5-fluoro-N-(5-piperazin-1-ylpyridin-2-yl)pyrimidin-2-amine] are 5.70 to 6.70 and 6.70 to 7.70.
The corresponding values for `CCN1CC2(C1)CN(c1ccc(Nc3ncc(F)c(-c4cc5c(C6CCCC6)ccnc5s4)n3)nc1)C2` [Example 47, 4-(4-Cyclopentylthieno[2,3-b]pyridin-2-yl)-N-[5-(6-ethyl-2,6-diazaspiro[3.3]heptan-2-yl)pyridin-2-yl]-5-fluoropyrimidin-2-amine] are 5.70 to 6.70 and 6.70 to 7.70.
For the molecule `Cc1c(-c2nc(Nc3ccc(N4CCN(C)CC4)cn3)ncc2F)sc2c(C3CCCC3)nccc12` [Example 48, 4-(7-Cyclopentyl-3-methylthieno[2,3-c]pyridin-2-yl)-5-fluoro-N-(5-(4-methylpiperazin-1-yl)pyridin-2-yl)pyrimidin-2-amine], the pIC50 (in test [1]; on CDK4/Cyclin D1) was 5.70 to 6.70 throughout.
With `Cc1c(-c2nc(Nc3ccc(C4CCN(C)CC4)cn3)ncc2F)sc2c(C3CCCC3)ncnc12` [Example 49, 4-(4-Cyclopentyl-7-methylthieno[3,2-d]pyrimidin-6-yl)-5-fluoro-N-(5-(1-methylpiperidin-4-yl)pyridin-2-yl)pyrimidin-2-amine], the pIC50 (in test [1]; at CDK4/Cyclin D1) was 5.70 to 6.70 in each case.
With `CCN1CC2(C1)CN(c1ccc(Nc3ncc(F)c(-c4sc5c(C(C)C)nn(C)c(=O)c5c4C)n3)nc1)C2` [Example 63, 2-(2-((5-(6-Ethyl-2,6-diazaspiro[3.3]heptan-2-yl)pyridin-2-yl)amino)-5-fluoropyrimidin-4-yl)-7-isopropyl-3,5-dimethylthieno[2,3-d]pyridazin-4(5H)-one], the pIC50 in test [1] was 5.70 to 6.70; at CDK4/Cyclin D1, 6.70 to 7.70.
`Cc1c(-c2nc(Nc3ccc(N4CCN5CCC4CC5)cn3)ncc2F)sc2c(C(C)C)cn(C)c(=O)c12` [Example 83, 2-(2-((5-(1,4-Diazabicyclo[3,2.2]nonan-4-yl)pyridin-2-yl)amino)-5-fluoropyrimidin-4-yl)-7-isopropyl-3,5-dimethylthieno[3,2-c]pyridin-4(5H)-one]: the results for the pIC50 (in test [1]; at CDK4/Cyclin D1) were 6.70 to 7.70 and ≥ 7.70, respectively.
The corresponding values for `CC(C)c1cn(C)c(=O)c2cc(-c3ccnc(Nc4ccc(C5CCN(C)CC5)cn4)n3)sc12` [Example 96, 7-Isopropyl-5-methyl-2-(2-((5-(1-methylpiperidin-4-yl)pyridine-2-yl)amino)pyrimidin-4-yl)thieno[3,2-c]pyridin-4(5H)-one] are 5.70 to 6.70 and 6.70 to 7.70.
The corresponding values for `Cc1c(-c2nc(Nc3ccc(C4CC[N+](C)([O-])CC4)cn3)ncc2F)sc2c(C(C)C)cn(C)c(=O)c12` (centres unmarked) [Example 98, 4-(6-((5-Fluoro-4-(7-isopropyl-3,5-dimethyl-4-oxo-4,5-dihydrothieno[3,2-c]pyridin-2-yl)pyrimidin-2-yl)amino)pyridin-3-yl)-1-methylpiperidine 1-oxide] are 6.70 to 7.70 and ≥ 7.70.
The corresponding values for `CCN1CCN(Cc2ccc(Nc3ncc(F)c(-c4sc5c(C(C)C)[nH]nc5c4C)n3)nc2)CC1` [Example 100, N-(5-((4-Ethylpiperazin-1-yl)methyl)pyridin-2-yl)-5-fluoro-4-(3-isopropyl-6-methyl-2H-thieno[3,2-c]pyrazol-5-yl)pyrimidin-2-amine] are 5.70 to 6.70 and 6.70 to 7.70.
Take `CCN1CC2(C1)CN(c1ccc(Nc3ncc(F)c(-c4sc5c(C(C)(C)OC)n(C)nc5c4C)n3)nc1)C2` [Example 105, N-(5-(6-Ethyl-2,6-diazaspiro[3.3]heptan-2-yl)pyridin-2-yl)-5-fluoro-4-(3-(2-methoxypropan-2-yl)-2,6-dimethyl-2H-thieno[3,2-c]pyrazol-5-yl)pyrimidin-2-amine]: the pIC50 in test [1] was 6.70 to 7.70; at CDK4/Cyclin D1, ≥ 7.70.
In the case of `CCN1CC2(C1)CN(c1ccc(Nc3ncc(F)c(-c4sc5c(nc(N(C)C)n5C(C)C)c4C)n3)nc1)C2` [Example 111, 5-(2-((5-(6-Ethyl-2,6-diazaspiro[3.3]heptan-2-yl)pyridin-2-yl)amino)-5-fluoropyrimidin-4-yl)-3-isopropyl-N,N,6-trimethyl-3H-thieno[2,3-d]imidazol-2-amine], the pIC50 (in test [1]; at CDK4/Cyclin D1) was 6.70 to 7.70 throughout.
